# Measured values published in patent US12465050B2, “Compositions comprising a pyridine carboxylate herbicide and protoporphyrinogen oxidase (protox) inhibitor herbicides” (priority 2018, dated 2025).
# Assays:
# Format in all cases: in vivo
# [1] = test system: Viola tricolor (wild pansy); assay: Greenhouse postemergence herbicidal effect on VIOTR
# Excerpt: (§1) Greenhouse Trial Methodology—Evaluation of Postemergence Herbicidal Effect
# (§2) Seeds of the desired test plant species were planted in a 90:10% v/v (volume/volume) mixture of PRO-MIX® BX (Premier Tech Horticulture, Quakertown, Pa., USA) and PROFILE® GREENS GRADE™ (Profile Products LLC, Buffalo Grove, Ill., USA) planting mixture, which typically has a pH of 5.2 to 6.2 and an organic matter content of at least 50 percent, in plastic pots with a surface area of 103.2 square centimeters (cm^2). In some aspects or embodiments, to help ensure good germination and healthy plants, a fungicide treatment and/or other chemical or physical treatment was applied. The plants were grown for 7-36 days (d) in a greenhouse with an approximate 14-hour (h) photoperiod which was maintained at about 23° C. during the day and 22° C. during the night. Nutrients and water were added on a regular basis and supplemental lighting was provided with overhead metal halide 1000-Watt lamps as necessary. The plants were employed for testing when they reached the second or third true leaf stage.
# (§3) Emulsifiable concentrates of each of each pyridine carboxylate herbicide (Compound A or Compound B) were prepared at 100 grams acid equivalent per liter (g ae/L). The emulsifiable concentrates also included a safener, cloquintocet mexyl, at 120 grams active ingredient per liter (g ai/L). An aliquot of each emulsifiable concentrate was placed in a 25 mL glass vial and diluted with an aqueous mixture of 1.25% (v/v) ACTIROB® B esterified rapeseed oil (Bayer Crop Science, Research Triangle Park, N.C., USA) or MSO® Concentrate with LECI-TECH® methylated soybean oil (Loveland Products, Loveland, Colo., USA) to obtain concentrated stock solutions at the highest application rate for each herbicide, based upon a 12 milliliter (mL) application volume at a rate of 187 liters per hectare (L/ha). The concentrated stock solutions were further diluted with an aqueous mixture of 1.25% v/v ACTIROB® B or MSO® Concentrate with LECI-TECH® to obtain stock solutions at reduced application rates for each herbicide. Spray solutions of the herbicide combinations (Compound A or Compound B plus PROTOX inhibitor herbicide) were prepared by adding weighed amounts or aliquots of the PROTOX inhibitor herbicides to the stock solutions of Compound A or Compound B to form 12-mL spray solutions in two-way combinations.
# (§4) The spray solutions were applied to the plant material with an overhead Mandel track sprayer equipped with 8002E nozzles calibrated to deliver 187 L/ha over an application area of 0.503 square meters (m^2) at a spray height of 18 inches (43 centimeters (cm)) above the average plant canopy. Control plants were sprayed in the same manner with the solvent blank. All pyridine carboxylate herbicide (component a) application rates are given as “g ae/ha” and all PROTOX inhibitor herbicide (component b) application rates are given as “g ai/ha.”
# (§5) The treated plants and control plants were placed in a greenhouse as described above and watered by sub-irrigation to prevent wash-off of the test compounds. After 20-22 d, the condition of the test plants as compared with that of the control plants was determined visually and scored on a scale of 0 to 100 percent where 0 corresponds to no injury and 100 corresponds to complete kill.
# Kochia scoparia (kochia) = assay: Greenhouse postemergence herbicidal effect on KCHSC
# Excerpt: as §1, §2, §3, §4, §5
# [2] = test system: Echinochloa crus-galli (barnyard grass); assay: Greenhouse postemergence herbicidal effect on ECHCG
# Excerpt: as §1, §2
# (§6) Emulsifiable concentrates of each of each pyridine carboxylate herbicide (Compound A or Compound B) were prepared at 100 grams acid equivalent per liter (g ae/L). The emulsifiable concentrates also included a safener, cloquintocet mexyl, at 120 grams active ingredient per liter (g ai/L). […]
# as §5
# [3] = test system: Cyperus esculentus (nutsedge); assay: Greenhouse postemergence herbicidal effect on CYPES
# Excerpt: as §1, §2, §6, §5
# [4] = test system: Triticum aestivum (spring wheat); assay: Greenhouse postemergence phytotoxicity on crop TRZAS
# Excerpt: as §1, §2, §3, §4, §5
# Zea mays (maize) = assay: Greenhouse postemergence phytotoxicity on crop ZEAMX
# Excerpt: as §1, §2, §6, §5
# [5] = test system: Polygonum convolvulus (wild buckwheat); assay: Greenhouse postemergence herbicidal effect on POLCO
# Excerpt: as §1, §2, §3, §4, §5
# [6] = test system: Chenopodium album L. (common lambsquarters); assay: Greenhouse postemergence herbicidal effect on CHEAL
# Excerpt: as §1, §2, §3, §4, §5
# [7] = test system: Brassica napus (winter rape); assay: Greenhouse postemergence herbicidal effect on BRSNW
# Excerpt: as §1, §2, §3, §4, §5
# [8] = test system: Matricaria chamomilla (wild chamomile); assay: Greenhouse postemergence herbicidal effect on MATCH
# Excerpt: as §1, §2, §3, §4, §5
# [9] = test system: Capsella bursa-pastoris (shepherd's purse); assay: Greenhouse postemergence herbicidal effect on CAPBP
# Excerpt: as §1, §2
# as §3, with “combinations. […]” for “combinations.”
# as §5
# [10] = test system: Veronica hederifolia (ivy-leaved speedwell); assay: Greenhouse postemergence herbicidal effect on VERHE
# Excerpt: as §1, §2
# as §3, with “combinations. […]” for “combinations.”
# as §5
# [11] = test system: Papaver rhoeas (herbicide-resistant poppy); assay: Greenhouse postemergence herbicidal effect on PAPRH-RES
# Excerpt: as §1, §2
# as §3, with “combinations. […]” for “combinations.”
# as §5
# [12] = Compound A 7.5, Oxyfluorfen 0 g/ha
# [13] = Compound A 10, Oxyfluorfen 0 g/ha
# [14] = Compound A 15, Oxyfluorfen 0 g/ha
# [15] = Compound A 7.5, Carfentrazone-ethyl 0 g/ha
# [16] = Compound A 7.5, Pyraclonil 0 g/ha
# [17] = Compound A 7.5, Pyraflufen-ethyl 0 g/ha
# [18] = Compound A 10, Carfentrazone-ethyl 0 g/ha
# [19] = Compound A 10, Pyraclonil 0 g/ha
# [20] = Compound A 10, Pyraflufen-ethyl 0 g/ha
# [21] = Compound A 7.5, Saflufenacil 0 g/ha
# [22] = Compound A 10, Saflufenacil 0 g/ha
smiles,measurement,setting,value
"N#CCOC(=O)c1nc(-c2ccc3cc[nH]c3c2F)c(F)c(N)c1Cl [Compound A, cyanomethyl 4-amino-3-chloro-5-fluoro-6-(7-fluoro-1H-indol-6-yl)pyridine-2-carboxylate]","% visual injury, Obs","[1]; Compound A 7.5, Bifenox 0 g/ha",45%
same,"% visual injury, Obs",[1]; [12],13%
same,"% visual injury, Obs","[1]; Compound A 10, Bifenox 0 g/ha",15%
same,"% visual injury, Obs",[1]; [13],15%
same,"% visual injury, Obs",[1]; [14],15%
same,"% visual injury, Obs","Kochia scoparia (kochia); Compound A 7.5, Bifenox 0 g/ha",63%
same,"% visual injury, Obs",Kochia scoparia (kochia); [15],50%
same,"% visual injury, Obs",Kochia scoparia (kochia); [12],63%
same,"% visual injury, Obs",Kochia scoparia (kochia); [16],50%
same,"% visual injury, Obs",Kochia scoparia (kochia); [17],70%
same,"% visual injury, Obs","Kochia scoparia (kochia); Compound A 10, Bifenox 0 g/ha",70%
same,"% visual injury, Obs",Kochia scoparia (kochia); [18],58%
same,"% visual injury, Obs",Kochia scoparia (kochia); [13],65%
same,"% visual injury, Obs",Kochia scoparia (kochia); [19],58%
same,"% visual injury, Obs",Kochia scoparia (kochia); [20],70%
same,"% visual injury, Obs",Kochia scoparia (kochia); [14],63%
same,"% visual injury, Obs","[2]; Compound A 7.5, Bifenox 0 g/ha",80%
same,"% visual injury, Obs","[2]; Compound A 10, Bifenox 0 g/ha",88%
same,"% visual injury, Obs",[3]; [21],30%
same,"% visual injury, Obs",[3]; [22],8%
same,"% visual injury, Obs",[4]; [15],0%
same,"% visual injury, Obs",[4]; [12],0%
same,"% visual injury, Obs",[4]; [16],0%
same,"% visual injury, Obs",[4]; [17],0%
same,"% visual injury, Obs",[4]; [21],5%
same,"% visual injury, Obs",[4]; [18],0%
same,"% visual injury, Obs",[4]; [13],0%
same,"% visual injury, Obs",[4]; [19],0%
same,"% visual injury, Obs",[4]; [20],0%
same,"% visual injury, Obs",[4]; [22],3%
same,"% visual injury, Obs",[4]; [14],0%
same,"% visual injury, Obs",Zea mays (maize); [21],0%
same,"% visual injury, Obs",Zea mays (maize); [22],0%
same,"% visual injury, Obs",[5]; [15],70%
same,"% visual injury, Obs",[5]; [12],65%
same,"% visual injury, Obs",[5]; [16],70%
same,"% visual injury, Obs",[5]; [17],30%
same,"% visual injury, Obs",[5]; [18],78%
same,"% visual injury, Obs",[5]; [13],78%
same,"% visual injury, Obs",[5]; [19],78%
same,"% visual injury, Obs",[5]; [20],43%
same,"% visual injury, Obs",[5]; [14],85%
same,"% visual injury, Obs",[6]; [16],70%
same,"% visual injury, Obs",[6]; [17],75%
same,"% visual injury, Obs",[6]; [19],83%
same,"% visual injury, Obs",[6]; [20],80%
same,"% visual injury, Obs",[7]; [12],60%
same,"% visual injury, Obs",[7]; [17],35%
same,"% visual injury, Obs",[7]; [13],65%
same,"% visual injury, Obs",[7]; [20],40%
same,"% visual injury, Obs",[7]; [14],73%
same,"% visual injury, Obs",[8]; [12],23%
same,"% visual injury, Obs",[8]; [17],10%
same,"% visual injury, Obs",[8]; [13],35%
same,"% visual injury, Obs",[8]; [20],20%
same,"% visual injury, Obs",[8]; [14],45%
same,"% visual injury, Obs",[9]; [12],45%
same,"% visual injury, Obs",[9]; [13],55%
same,"% visual injury, Obs",[9]; [14],55%
same,"% visual injury, Obs",[10]; [12],68%
same,"% visual injury, Obs",[10]; [13],73%
same,"% visual injury, Obs",[10]; [14],75%
same,"% visual injury, Obs",[11]; [12],96%
same,"% visual injury, Obs",[11]; [13],98%
same,"% visual injury, Obs",[11]; [14],100%
